Patent publication US4356183A, “Antihypertensive 4-thiazolidinecarboxylic acids (pyridyl derivatives)” (Santen Pharmaceutical Co., Ltd., priority 1978, dated 1982)
Like-named read-outs stand apart in the source and are kept apart here.

Tests used:
[1] = tested on: contractile response of isolated guinea pig ileum to angiotensin I; test: Inhibition of contractile response of isolated guinea pig ileum to angiotensin I; assay type: cell-based; details: angiotensin I 0.1 μg/ml, compound added 5 min before, 30° C., read-out: Angiotensin I IC50 (50% inhibition of angiotensin I activity inducing the contraction of guinea pig ileum)
From the text: As the method of measurement of angiotensin I-converting enzyme activity, bioassay for the contractile response of isolated smooth muscle or the pressor response of normal animals and biochemical assay for the enzyme isolated from lung or other organs of animals are known. The former is found more advantageous than the latter for the examination of the convertion of angiotensin I to angiotensin II in vivo.
In the present study, therefore, we adopted the bioassay for contractile response of isolated guinea pig ileum to angiotensin I.
(§1) Measurement of inhibitory activity of angiotensin I-converting enzyme
(§2) Isolated guinea pig ileum was suspended in the organ bath containing 20 ml of Tyrode's solution of 30° C. gassed with 95% O2 +5% CO2. The contraction induced by the addition of angiotensin I (0.1 μg/ml) at intervals of 10 minutes was recorded on a recticorder (Nihon Koden) for 90 seconds using FD pick up (ST-1T-H, Nihon Koden).
(§3) The test compounds were added to the bath 5 minutes before the addition of angiotensin I.
The inhibitory activity of angiotensin I-converting enzyme was calculated by the following formula. [formula] A: contractile intensity of angiotensin I before addition of the compound B: contractile intensity of angiotensin I after addition of the compound

[2] = tested on: contractile response to bradykinin (isolated guinea pig ileum); test: Augmentation of contractile response of isolated guinea pig ileum to bradykinin; assay type: cell-based; details: bradykinin 0.005 μg/ml, compound added 5 min before, 30° C., read-out: Bradykinin AC50 (50% augmentation of bradykinin activity inducing the contraction of guinea pig ileum)
Protocol: as §2, §3
From the fact that kininase II, which destroys bradykinin having contractive action on isolated guinea pig ileum, is thought to be identical with angiotensin I-converting enzyme, augmentation of the contractile response to bradykinin by test compounds was examined by using bradykinin (0.005 μg/ml) in place of angiotensin I according to the above mentioned method.

[3] = target: T1, angiotensin I-converting enzyme (Oryctolagus cuniculus, UniProt P12822); test: Inhibition of angiotensin I-converting enzyme by spectrophotometry (HHL substrate); assay type: biochemical; details: enzyme from rabbit lung; 5 mM HHL; pH 8.3; 37° C., 30 min
T1 construct: angiotensin I-converting enzyme extracted from rabbit lung; from tissue; host or cells: rabbit lung
T1 sequence (P12822 34-1310): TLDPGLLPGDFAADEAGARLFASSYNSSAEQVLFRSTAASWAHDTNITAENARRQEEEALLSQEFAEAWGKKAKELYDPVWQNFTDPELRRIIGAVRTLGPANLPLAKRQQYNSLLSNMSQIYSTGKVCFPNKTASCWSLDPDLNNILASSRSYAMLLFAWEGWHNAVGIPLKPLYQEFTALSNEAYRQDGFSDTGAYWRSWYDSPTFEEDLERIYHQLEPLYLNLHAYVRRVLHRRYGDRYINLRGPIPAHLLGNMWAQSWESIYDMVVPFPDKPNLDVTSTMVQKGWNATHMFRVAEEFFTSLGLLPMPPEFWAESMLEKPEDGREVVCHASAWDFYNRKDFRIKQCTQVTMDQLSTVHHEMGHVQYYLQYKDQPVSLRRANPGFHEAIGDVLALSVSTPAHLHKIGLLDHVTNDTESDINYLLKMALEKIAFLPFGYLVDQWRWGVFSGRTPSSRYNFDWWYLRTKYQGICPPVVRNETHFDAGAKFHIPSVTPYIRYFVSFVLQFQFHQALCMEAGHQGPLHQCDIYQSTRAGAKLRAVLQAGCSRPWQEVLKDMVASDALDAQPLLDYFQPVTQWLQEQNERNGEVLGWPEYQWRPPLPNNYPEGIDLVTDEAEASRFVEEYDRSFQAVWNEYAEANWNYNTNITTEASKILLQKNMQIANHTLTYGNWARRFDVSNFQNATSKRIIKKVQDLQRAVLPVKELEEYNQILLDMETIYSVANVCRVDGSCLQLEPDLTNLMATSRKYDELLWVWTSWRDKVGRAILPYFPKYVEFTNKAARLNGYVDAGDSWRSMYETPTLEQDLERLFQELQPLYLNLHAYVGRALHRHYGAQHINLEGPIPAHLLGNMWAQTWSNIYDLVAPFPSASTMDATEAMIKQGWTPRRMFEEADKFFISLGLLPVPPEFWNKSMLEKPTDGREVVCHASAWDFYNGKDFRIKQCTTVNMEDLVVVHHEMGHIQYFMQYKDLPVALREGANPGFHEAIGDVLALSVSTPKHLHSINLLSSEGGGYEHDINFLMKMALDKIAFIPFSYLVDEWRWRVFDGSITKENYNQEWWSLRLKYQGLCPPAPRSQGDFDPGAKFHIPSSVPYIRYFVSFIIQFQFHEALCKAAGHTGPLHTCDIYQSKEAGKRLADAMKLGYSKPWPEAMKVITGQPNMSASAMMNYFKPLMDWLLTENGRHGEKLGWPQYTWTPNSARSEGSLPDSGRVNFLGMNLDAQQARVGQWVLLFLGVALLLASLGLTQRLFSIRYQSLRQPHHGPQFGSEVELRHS
Protocol: That is, the absorbance of hippuric acid was measured, which is liberated by incubating hippuryl-L-histidyl-L-leucine (HHL) as substrate in the presence of angiotensin I-converting enzyme extracted from rabbit lung.
as §1
The reaction mixture is as follows:
100 mM phosphate buffer (pH 8.3)
10^-3 ~10^-9 M enzyme inhibitor
0.25 ml of the above mixture was incubated at 37° C. for 30 minutes and the reaction was stopped by adding 0.25 ml of 1 N hydrochloric acid. To this solution, 1.5 ml of ethyl acetate was added in order to extract hippuric acid. 1.0 ml of ethyl acetate layer was collected and evaporated to dryness, and the residue obtained was dissolved in 1.0 ml of water.
The inhibitory activity of angiotensin I-converting enzyme was calculated by the following formula: [formula]

[4] = tested on: pressor response to angiotensin I; test: Inhibition of pressor response to angiotensin I in rats after oral administration; assay type: in vivo, rat (male Wistar); details: angiotensin I 300 ng/kg i.v.; for Inhibition (%) of pressor response to angiotensin I, 5 min / Inhibition (%) of pressor response to angiotensin I, 15 min / Inhibition (%) of pressor response to angiotensin I, 25 min / Inhibition (%) of pressor response to angiotensin I, 35 min / Inhibition (%) of pressor response to angiotensin I, 45 min / Inhibition (%) of pressor response to angiotensin I, 55 min / Inhibition (%) of pressor response to angiotensin I, 65 min / Inhibition (%) of pressor response to angiotensin I, 75 min / Inhibition (%) of pressor response to angiotensin I, 85 min: dose: 3, 45, 49 1.8 mg/kg, 4, 46 1.3, 50 1.4, 76 2.0, 77 1.5; for Inhibition (%) of pressor response to angiotensin I, 95 min: dose: 45, 49 1.8 mg/kg, 4, 46 1.3, 50 1.4, 76 2.0, 77 1.5; for Inhibition (%) of pressor response to angiotensin I, 105 min / Inhibition (%) of pressor response to angiotensin I, 115 min: dose: 45, 49 1.8 mg/kg, 46 1.3, 50 1.4, 76 2.0, 77 1.5
Protocol: Male Wistar strain rats weighing about 200-300 g were used.
Under ether anesthesia, polyethylene cannulae are inserted into carotid arthery and jugular vein. The cannula to carotid artery is connected to an electric transducer, while the cannula to jugular vein is connected to an apparatus for continuous infusion. After the complete recovery from anesthesia, angiotensin I is infused intravenously in a dose of 300 ng/kg by the apparatus for continuous infusion, and the pressor response is recorded by polygraph (Nihon Koden, RM-150).
The compounds of this invention suspended in 0.5% tragacanth solution are administered orally in a dose of 0.3 ml per 100 g of body weight, and the pressor response to angiotensin I infused intravenously is measured with time.
The inhibitory activity of the compounds against angiotensin I-converting enzyme is expressed as the percent inhibition of pressor response to angiotensin I.

O=C(O)[C@@H]1CSC(CCS)N1C(=O)CCS (single isomer, unassigned) [Compound 6a]
IC50 ([1]; Cavia porcellus): 410 nM | AC50 [2]: 15 nM | IC50 [3]: 650 nM

O=C(O)[C@@H]1CSC(CCS)N1C(=O)CCS (single isomer, unassigned) [Compound 6b]
IC50 [1]: 300 nM | AC50 [2]: 3.7 nM | IC50 [3]: 370 nM

C[C@H](CS)C(=O)N1C(CCS)SC[C@H]1C(=O)O (single isomer, unassigned) [Compound 8a]
IC50 ([1]; Cavia porcellus): 85 nM | AC50 ([2]; Cavia porcellus): 1.4 nM | IC50 [3]: 250 nM

C[C@H](CS)C(=O)N1C(CCS)SC[C@H]1C(=O)O (single isomer, unassigned) [Compound 8b]
IC50 [1]: 140 nM | AC50 [2]: 1.1 nM | IC50 [3]: 290 nM

C[C@H](CS)C(=O)N1C(Cc2ccccc2)SC[C@H]1C(=O)O (single isomer, unassigned) [Compound 10a]
IC50 ([1]; Cavia porcellus): 810 nM | AC50 ([2]; Cavia porcellus): 13 nM | IC50 [3]: 2800 nM

C[C@H](CS)C(=O)N1C(Cc2ccccc2)SC[C@H]1C(=O)O (single isomer, unassigned) [Compound 10b]
IC50 [1]: 580 nM | AC50 [2]: 10 nM | IC50 [3]: 310 nM

CC(C)=CCCC(C)CC1SC[C@@H](C(=O)O)N1C(=O)[C@H](C)CS (stereo partly drawn) [Compound 2]
IC50 ([1]; Cavia porcellus): 480 nM | AC50 ([2]; Cavia porcellus): 19 nM | IC50 [3]: 3200 nM

C[C@H](CSC(=O)c1ccccc1)C(=O)N1C(C2CCCCC2)SC[C@H]1C(=O)O (stereo partly drawn) [Compound 3]
Inhibition (%) of pressor response to angiotensin I, 5 min [4]: 35.2% | Inhibition (%) of pressor response to angiotensin I, 15 min [4]: 40.8% | Inhibition (%) of pressor response to angiotensin I, 25 min [4]: 26.9% | Inhibition (%) of pressor response to angiotensin I, 35 min [4]: 17.9% | Inhibition (%) of pressor response to angiotensin I, 45 min [4]: 14.2% | Inhibition (%) of pressor response to angiotensin I, 55 min [4]: 14.8% | Inhibition (%) of pressor response to angiotensin I, 65 min [4]: 6.3% | Inhibition (%) of pressor response to angiotensin I, 75 min [4]: 9.5% | Inhibition (%) of pressor response to angiotensin I, 85 min [4]: 5.8%

O=C(O)[C@@H]1CSC(c2ccccc2)N1C(=O)CS (stereo partly drawn) [Compound 12]
IC50 ([1]; Cavia porcellus): 900 nM | AC50 ([2]; Cavia porcellus): 19 nM | IC50 [3]: 13000 nM

O=C(O)[C@@H]1CSC(c2ccccc2)N1C(=O)CCS (stereo partly drawn) [Compound 16]
IC50 ([1]; Cavia porcellus): 240 nM | AC50 ([2]; Cavia porcellus): 2.6 nM | IC50 [3]: 450 nM

Cc1ccc(C2SC[C@@H](C(=O)O)N2C(=O)[C@H](C)CS)cc1 (stereo partly drawn) [Compound 22]
IC50 ([1]; Cavia porcellus): 170 nM | AC50 ([2]; Cavia porcellus): 3.9 nM | IC50 [3]: 540 nM

O=C(O)[C@@H]1CSC(c2ccccc2Cl)N1C(=O)CCS (stereo partly drawn) [Compound 24]
IC50 ([1]; Cavia porcellus): 700 nM | AC50 ([2]; Cavia porcellus): 16 nM | IC50 [3]: 3600 nM

O=C(SCCC(=O)N1C(c2ccccc2O)SC[C@H]1C(=O)O)c1ccccc1 (stereo partly drawn) [Compound 45, (4R)-3-(S-Benzoyl-3-mercaptopropanoyl)-2-(2-hydroxyphenyl)-4-thiazolidinecarboxylic acid]
Inhibition (%) of pressor response to angiotensin I, 5 min [4]: 20.0% | Inhibition (%) of pressor response to angiotensin I, 15 min [4]: 26.6% | Inhibition (%) of pressor response to angiotensin I, 25 min [4]: 30.1% | Inhibition (%) of pressor response to angiotensin I, 35 min [4]: 31.8% | Inhibition (%) of pressor response to angiotensin I, 45 min [4]: 20.9% | Inhibition (%) of pressor response to angiotensin I, 55 min [4]: 13.5% | Inhibition (%) of pressor response to angiotensin I, 65 min [4]: 19.0% | Inhibition (%) of pressor response to angiotensin I, 75 min [4]: 14.9% | Inhibition (%) of pressor response to angiotensin I, 85 min [4]: 20.9% | Inhibition (%) of pressor response to angiotensin I, 95 min [4]: 10.3% | Inhibition (%) of pressor response to angiotensin I, 105 min [4]: 10.3% | Inhibition (%) of pressor response to angiotensin I, 115 min [4]: 8.8%

COc1ccc(C2SC[C@@H](C(=O)O)N2C(=O)[C@H](C)CSC(=O)c2ccccc2)c(O)c1 (stereo partly drawn) [Compound 76]
Inhibition (%) of pressor response to angiotensin I, 5 min [4]: 26.0% | Inhibition (%) of pressor response to angiotensin I, 15 min [4]: 45.9% | Inhibition (%) of pressor response to angiotensin I, 25 min [4]: 56.1% | Inhibition (%) of pressor response to angiotensin I, 35 min [4]: 55.9% | Inhibition (%) of pressor response to angiotensin I, 45 min [4]: 58.2% | Inhibition (%) of pressor response to angiotensin I, 55 min [4]: 47.1% | Inhibition (%) of pressor response to angiotensin I, 65 min [4]: 48.9% | Inhibition (%) of pressor response to angiotensin I, 75 min [4]: 40.7% | Inhibition (%) of pressor response to angiotensin I, 85 min [4]: 41.7% | Inhibition (%) of pressor response to angiotensin I, 95 min [4]: 32.2% | Inhibition (%) of pressor response to angiotensin I, 105 min [4]: 30.6% | Inhibition (%) of pressor response to angiotensin I, 115 min [4]: 28.5%
